In publication PMC10376326, “Novel Acylselenourea Derivatives: Dual Molecules with Anticancer and Radical Scavenging Activity” (Antioxidants, 2023):

Assays:
[1] = tested on: MDA-MB-231 (breast) cancer cell line; test: MTT cell viability assay, MDA-MB-231; format: cell-based, human; conditions: Homo sapiens, MDA-MB-231, 48 h; for activity at 10 µM: read-out: Cell growth %, MDA-MB-231, 10 µM, 48 h, MTT; for activity at 50 µM: read-out: Cell growth %, MDA-MB-231, 50 µM, 48 h, MTT
Procedure: (§1) Cell lines were purchased from the American Type Culture Collection (ATCC). Cell lines MDA-MB-231, HTB-54, DU-145, and BEAS-2B were cultured in RPMI 1640 medium (Gibco, Thermo Fisher Scientific, Gaithersburg, MD, USA) supplemented with 10% fetal bovine serum (FBS; Gibco), 100 units/mL penicillin, and […] streptomycin (Gibco). HT-29 cell line was grown in McCoy’s 5A (Gibco), 10% FBS, 100 units/mL penicillin, and 100 μg/mL streptomycin. Cells were maintained at 37 °C and 5% CO2. The culture medium was changed every three days.
(§2) The cell viability of each compound was measured by MTT colorimetric assay. Each compound was dissolved in DMSO at a concentration of 0.01 M. Each compound was tested at two different concentrations (10 and 50 µM) in MDA-MB-231 (breast), HTB-54 (lung), DU-145 (prostate), and HT-29 (colon) human cancer cell lines. Serial dilutions were prepared with supplemented culture medium. […] IC50 and selectivity indexes (SI) were determined.
(§3) Briefly, 1 × 10^4 tumor cells per well were grown in 96-well plates for 24 h. Then, these cells were incubated for 48 h with either DMSO (control) or a different concentration of each of the tested compounds. The cell viability was determined by adding 20 μL of MTT two hours and a half before the termination point. After this time, the culture medium was removed. The resulting formazan crystals were dissolved in 50 μL of DMSO, and the absorbance was measured at 570 nm. Results are expressed as % cell growth. The data were obtained from at least three independent experiments performed in quadruplicate.

[2] = tested on: HTB-54 (lung) cancer cell line; test: MTT cell viability assay, HTB-54; format: cell-based, human; conditions: for activity at 10 µM / activity at 50 µM / IC50: Homo sapiens, HTB-54, 48 h; for activity at 10 µM: read-out: Cell growth %, HTB-54, 10 µM, 48 h, MTT; for activity at 50 µM: read-out: Cell growth %, HTB-54, 50 µM, 48 h, MTT; for IC50: read-out: IC50 HTB-54, Lung, MTT, 48 h; for SI: IC50 (BEAS-2B)/IC50 (HTB-54)
Procedure: as §1, §2, §3

[3] = tested on: DU-145 (prostate) cancer cell line; test: MTT cell viability assay, DU-145; format: cell-based, human; conditions: Homo sapiens, DU-145, 48 h; for activity at 10 µM: read-out: Cell growth %, DU-145, 10 µM, 48 h, MTT; for activity at 50 µM: read-out: Cell growth %, DU-145, 50 µM, 48 h, MTT
Procedure: as §1, §2, §3

[4] = tested on: HT-29 (colon) cancer cell line; test: MTT cell viability assay, HT-29; format: cell-based; conditions: Homo sapiens, HT-29, 48 h, read-out: Cell growth %; for activity at 10 µM: HT-29, 10 µM; for activity at 50 µM: HT-29, 50 µM
Procedure: as §1, §2, §3

[5] = tested on: MDA-MB-231, HT-29, HTB-54 and DU-145 cancer cell lines; test: MTT cell viability assay, statements over the panel of cancer cell lines; format: cell-based, human; conditions: in at least three of the four cancer cell lines tested
Procedure: as §1, §2, §3

[6] = DPPH radical scavenging assay; format: biochemical; conditions: for DPPH Inhibitory%: acylselenourea analogs
Procedure: Different methods are available to quantify the antioxidant capacity of natural or novel molecules. Notable among these are the ABTS^•+ and DPPH^• methods, which measure the quenching efficiency in vitro for known concentrations of preformed radicals. In this work, the DPPH^• colorimetric assay was carried out. Measurements were recorded on a BioTeck PowerWave XS spectrophotometer (BioTeck Instruments, Winooski, VT, USA) and data were collected using KCJunior v.1.41. software (BioTeck Instruments, Winooski, VT, USA). Compounds with potent activity were selected to further determine their protective effect against ROS-induced cell death caused by H2O2.
DPPH colorimetric assay was performed to determine the in vitro radical scavenging activity of the acylselenourea derivatives. DPPH assay was performed as described by Svinyarov. For each acylselenourea, a stock solution of 1 mg/mL in dimethyl sulfoxide (DMSO) was made, and these solutions were used to prepare the different concentrations employed in the assay. The compounds were tested at two different concentrations (0.003 and 0.03 mg/mL). Intermediate solutions were prepared in methanol and a volume of 100 µL of each was added to each well of the plate. Then, 100 µL of DPPH^• (previously prepared at a concentration of 0.04 mg/mL in methanol and preserved in the dark) was added to the previous methanolic acylselenourea solutions. The discoloration of the purple radical to the yellow reduced form was followed at 517 nm at different time points (0, 5, 15, 30, 60, 90, and 120 min). Ascorbic acid and trolox were used as positive controls. All measurements were carried out in triplicate. Results are expressed as the percentage of the radicals scavenged, calculated using the following formula: (1) % DPPH radical scavenging=Acontrol - Asample/Acontrol × 100 where Acontrol refers to the absorbance of the negative control and Asample refers to the absorbance of the tested compounds. Results are expressed as percentage of DPPH radical scavenging ± SD.

[7] = tested on: non-malignant BEAS-2B lung cell line; test: MTT cell viability assay, BEAS-2B; format: cell-based; conditions: Homo sapiens, normal lung, 48 h
Procedure: as §1, §2, §3

[8] = tested on: DU-145 cells; test: Protective effects against H2O2-induced oxidative stress in DU-145 cells (MTT); format: cell-based, human; conditions: increase-fold of cell survival
Procedure: Cells were treated with the selected compounds and then oxidative damage to DU-145 cells was induced using different concentrations of H2O2 (200, 250 and 300 µM), and cell viability was assessed by the MTT method. Briefly, 2.5 × 10^4 DU-145 cells per well were added in 96-well plates. After 24 h of incubation, DMSO, 1.I, 2.I, 5.I, 7.II, 10.II, and ascorbic acid were added to each well at two different concentrations (0.0015 mg/mL and 0.0003 mg/mL) and incubated for 1 h. After that, H2O2 was added at the concentrations of 200, 250, and 300 µM, and the cells were incubated for 12 h to induce cell damage. MTT assay was used to measure cell viability. For each treatment, the mean cell viability was calculated from three independent experiments. The DMSO-treated controls were assigned with a cell viability value of 100% (Vcontrol). The results are expressed as a cell growth inhibition % caused by H2O2 and the increased fold of cell survival, as follows: • Cells without compounds, only treated with H2O2: (2) % Cell growth inhibition=Acontrol - Asample/Acontrol × 100
• Cells treated with compounds and H2O2:
(3) % Cell growth inhibition=Asample (compound) - Asample (compound+H2O2)/Acontrol × 100
(4) Increase-fold of cell survival=% cell growth inhibition (H2O2)/% cell growth inhibition (compound+ H2O2)
The standard error of the mean (SEM) was calculated in at least three independent experiments performed in quadruplicates.

[9] = compound 0.0003 mg/mL, 200 µM H2O2, DU-145
[10] = compound 0.0003 mg/mL, 250 µM H2O2, DU-145
[11] = compound 0.0003 mg/mL, 300 µM H2O2, DU-145
[12] = compound 0.0015 mg/mL, 200 µM H2O2, DU-145
[13] = compound 0.0015 mg/mL, 250 µM H2O2, DU-145
[14] = compound 0.0015 mg/mL, 300 µM H2O2, DU-145

SMILES	activity at 10 µM [1] [%]	activity at 50 µM [1] [%]	activity at 10 µM [2] [%]	activity at 50 µM [2] [%]	IC50 [2] [µM]	SI [2]	activity at 10 µM [3] [%]	activity at 50 µM [3] [%]	activity at 10 µM [4] [%]	activity at 50 µM [4] [%]	inhibition ([6]; 0.003 mg/mL, 0 min) [%]	inhibition ([6]; 0.003 mg/mL, 5 min) [%]	inhibition ([6]; 0.003 mg/mL, 15 min) [%]	inhibition ([6]; 0.003 mg/mL, 30 min) [%]	inhibition ([6]; 0.003 mg/mL, 60 min) [%]	inhibition ([6]; 0.003 mg/mL, 90 min) [%]	inhibition ([6]; 0.003 mg/mL, 120 min) [%]	inhibition ([6]; 0.03 mg/mL, 0 min) [%]	inhibition ([6]; 0.03 mg/mL, 5 min) [%]	inhibition ([6]; 0.03 mg/mL, 15 min) [%]	also measured
CCCNC(=[Se])NC(=O)c1cccs1 [Compound 2.I, N-(propylcarbamoselenoyl)thiophene-2-carboxamide]	32.8 ± 7.2	15.2 ± 8.8	92.3 ± 6.2	71.8 ± 4.4	8.6 ± 1.1	0.6	54.5 ± 8.4	50.2 ± 2	48.4 ± 13.8	32.7 ± 6.9	0	4.9 ± 3.6	8.2 ± 3.3	11.4 ± 2.7	16 ± 3.4	17 ± 2.2	17.8 ± 2.2	2.5 ± 0.6	12.8 ± 1.8	36.2 ± 0.1	cell growth [5]: below 55%; time to reach the highest DPPH inhibition ([6]; 0.03 mg/mL): 60 min; inhibition ([6]; 0.03 mg/mL, 30 min): 59 ± 3%; inhibition ([6]; 0.03 mg/mL, 60 min): 90.7 ± 5.7%; inhibition ([6]; 0.03 mg/mL, 90 min): 95.5 ± 0.2%; inhibition ([6]; 0.03 mg/mL, 120 min): 95.5 ± 0.3%; IC50 [7]: 5.3 ± 0.6 µM; Increase-fold [8, 9]: 0.8 ± 0.2; Increase-fold [8, 10]: 0.9 ± 0.2; Increase-fold [8, 11]: 1.0 ± 0.3; Increase-fold [8, 12]: 2.9 ± 1.5; Increase-fold [8, 13]: 3.1 ± 1.3; Increase-fold [8, 14]: 2.9 ± 1.2
C=CCNC(=[Se])NC(=O)c1cccnc1 [Compound 7.II, N-(allylcarbamoselenoyl)nicotinamide]	33.9 ± 6.7	10.5 ± 7	21.4 ± 8.2	10.2 ± 5.8	12 ± 2.7	0.5	50.6 ± 2.4	8.95 ± 4.9	110 ± 19.4	19 ± 3.6	3.6 ± 2.3	12 ± 2.2	16.8 ± 1.3	18.9 ± 1.3	20.3 ± 1.2	20.7 ± 1.3	20.7 ± 1.3	56.3 ± 6.2	90 ± 1.3	95.7 ± 0.4	cell growth [5]: below 55%; time to reach the highest DPPH inhibition ([6]; 0.03 mg/mL): 5 min; DPPH Inhibitory% ([6]; 0.03 mg/mL, 90 min): 96.2 ± 0.2%; IC50 [7]: 6.3 ± 1.5 µM; Increase-fold [8, 9]: 2.3 ± 1.2; Increase-fold [8, 10]: 1.6 ± 0.2; Increase-fold [8, 11]: 1.8 ± 0.4; Increase-fold [8, 12]: 1.5 ± 0.2; Increase-fold [8, 13]: 1.2 ± 0.3; Increase-fold [8, 14]: 1.4 ± 0.3
C#CCNC(=[Se])NC(=O)c1ccc2c(c1)OCO2 [Compound 8.III, N-(prop-2-in-1-ylcarbamoselenoyl)benzo[d][1,3]dioxole-5-carboxamide]	61.9 ± 13.5	19.1 ± 9.6	34.5 ± 9.1	31.6 ± 6.1	21.7 ± 4.1	>4.6	63 ± 4.8	12.3 ± 7.8	40.3 ± 8.3	18.1 ± 5.3	1.1 ± 2.3	2.4 ± 2.2	4.4 ± 2	6.2 ± 1.9	8.3 ± 1.8	9.2 ± 1.8	9.7 ± 1.8	6.4 ± 2.5	17.9 ± 0.9	32.8 ± 0.9	inhibition ([6]; 0.03 mg/mL, 30 min): 45.2 ± 2%; inhibition ([6]; 0.03 mg/mL, 60 min): 59.7 ± 3.8%; inhibition ([6]; 0.03 mg/mL, 120 min): 72.5 ± 8.1%; DPPH Inhibitory% ([6]; 0.03 mg/mL, 90 min): 62.4 ± 3.1%; IC50 [7]: > 100 µM
